Data published in patent US12233103B2, “Indoleamine 2,3-dioxygenase based immunotherapy” (IO BIOTECH APS, priority 2008, dated 2025).

Assays:
[1] = target: T1, HLA-A2 (Homo sapiens, UniProt P04439, D140Y/D185E/D98H/E176V/E277Q/G131W/G231S/I119V/I121R/I166T/I218V/L300P/L318F/N151K/N90K/P208A/P217A/Q86G/Q94H/R138H/R169H/T345S); test: Assembly assay for peptide binding to MHC class I molecules; conditions: recovery of HLA-A2 at 100, 10, 1 and 0.1 μM peptide
T1 construct: empty HLA-molecules released upon cell lysis, from the TAP-deficient cell line T2; endogenous in cells; host or cells: T2 (TAP-deficient human cell line), cell lysate
Protocol: The binding affinity of the synthetic peptides (Genscript) to HLA-A2 molecules, metabolically labelled with [35^S]-methionine, was measured in the assembly assay, as described previously^33. The assay is based on peptide-mediated stabilization of empty HLA-molecules released upon cell lysis, from the TAP-deficient cell line T2. Stably folded HLA-molecules were immune-precipitated by using the HLA class-I specific, conformation dependent monoclonal (mAb) W6/32 and separated by isoelectric focusing (IEF) gel electrophoresis. Major histocompatibility complex (MHC) heavy-chain bands were quantified using the ImageGauge Phosphoimager program (FUJI Photo Film, Carrolton, TX). The intensity of the band is directly related to the amount of peptide-bound class I MHC complex recovering during the assay. The recovery of HLA-A2 was measured in presence of 100, 10, 1, and 0.1 μM of the relevant peptide. The C50 value was calculated for each peptide as the peptide concentration sufficient for half maximal stabilization.

[2] = system: PBL from HLA-A2 positive cancer patients (breast cancer, melanoma, renal cell carcinoma); test: IFN-γ ELISPOT after one in vitro peptide stimulation, cancer patients; type: cell-based, human; conditions: HLA-A2 positive late stage cancer patients; PBL stimulated once with peptide in vitro
Protocol: (§1) To extend the sensitivity of the enzyme-linked immunospot (ELISPOT) assay, PBL were stimulated once in vitro with peptide prior to analysis^34. At day 0, PBL were thawed and plated in 2 ml/well at a concentration of 2×10^6 cells in 24-well plates (Nunc) in X-vivo medium (BioWhittaker) with 5% heat-inactivated human serum in the presence of 10 μM peptide (GenScript). One day later 40 IU/ml recombinant interleukin-2 (IL-2) (PeproTech) was added to the cultures. The cultured cells were tested in the IFN-γ ELISPOT assay on day 8.
(§2) The ELISPOT assay was used to quantify peptide epitope-specific INF-γ releasing effector cells as described previously^17. In some experiments PBMC were stimulated once in vitro with peptide prior to analysis as described^(34) to extend the sensitivity of the assay. Briefly, nitrocellulose bottomed 96-well plates (MultiScreen MAIP N45; Millipore) were coated with anti-IFN-γ Ab (1-D1K; Mabtech). The wells were washed, blocked by X-vivo medium and the effector cells were added in duplicates at different cell concentrations, with or without 10 μM peptide. The plates were incubated overnight. The following day, medium was discarded and the wells were washed prior to addition of biotinylated secondary Ab (7-B6-1-Biotin; Mabtech). The plates were incubated at room temperature (RD for 2 h, washed, and Avidin-enzyme conjugate (AP-Avidin; Calbiochem/Invitrogen Life Technologies) was added to each well. Plates were incubated at RT for 1 h and the enzyme substrate NBT/BCIP (Invitrogen Life Technologies) was added to each well and incubated at RT for 5-10 min. Upon the emergence of dark purple spots, the reaction was terminated by washing with tap water. The spots were counted using the ImmunoSpot Series 2.0 Analyzer (CTL Analyzers) and the peptide-specific CTL frequency could be calculated from the numbers of spot-forming cells.
(§3) Eleven IDO-derived peptides were selected using algorithms based on the main HLA-A2 specific anchor residues and subsequently synthesized^16. […]

[3] = system: PBL from healthy individuals; test: IFN-γ ELISPOT after one in vitro peptide stimulation, healthy individuals; type: cell-based, human
Protocol: as §1, §2, §3

[4] = system: CD8+ T cells in PBL; test: HLA-A2/IDO5 tetramer flow cytometry of PBL; type: cell-based, human; conditions: for average frequency of IDO reactive cells of total CD8+ T cells: after in vitro stimulation
Description: (§4) For tetramer stainings, PBL from cancer patients and healthy donors as well as TIL from cancer patients were stimulated once in vitro with peptide, or analysed directly ex vivo. The CD8 cells were isolated from PBL using the Dynal CD8 negative isolation kit (Dynal Biotech) at day 7. The resulting T cell cultures were stained with PE coupled tetramer, followed by antibody staining with the flourochrome-coupled mAbs: CD8-allophycocyanin/APC-Cy7, CD3-FITC, […], CD45RO-FITC, CD45RA-PE-Cy5 and CD28-allophycocyanin (BD Immunocytometry Systems). Tetramer stainings were performed in PBS+2% FCS, for 15 min, RT, in the dark, whereas antibody stainings were performed in PBS+2% FCS, 4° C., in the dark. The MHC tetramer complexes used were: HLA-A2/IDO5 (ALLEIASCL (SEQ ID NO: 20)) and HLA-A2/HIV-1 pol476-484 ([…] (SEQ ID NO: 18)). The samples were analyzed on BD FACS aria, using DIVA software (BD Biosciences).

[5] = system: TIL cultures from HLA-A2+ melanoma and head and neck cancer patients; test: HLA-A2/IDO5 tetramer staining of IL-2 treated TIL cultures; type: cell-based, human; conditions: tetramer stainings
Description: as §4

[6] = system: IDO; test: Intracellular IDO staining by flow cytometry; type: cell-based, human
Description: Cancer cell lines and DC were examined for expression of IDO using flow cytometry. After fixation and permeabilization (Cytofix/Cytoperm, BD), cells were stained with mouse anti-IDO antibody (Millipore Corporation) followed by FITC-labeled anti-mouse secondary antibody (DAKO). For all experiments, a negative control only stained with the FITC-coupled secondary antibody was included, to determine the background fluorescence from falsely attached secondary antibodyE and auto-fluorescence. The IDO expression was determined using the staining index defined as MFIpositive−MFIbackground/2×SDbackground where MFI is mean fluorescence intensity. Cells were defined IDO positive if the staining index>1^21.

[7] = system: HLA-A2; test: HLA-A2 expression by flow cytometry; type: cell-based, human; conditions: CAMA-1+IFN-γ treatment (untreated 43.7)
Protocol: Cancer cells were examined for HLA-A2 expression using flow cytometry. Cells were stained with a fluorochrome-coupled HLA-A2 mAb (BD Bioscience). For comparison, cells were stained with an isotype matched control. The samples were analyzed on BD FACS aria, using DIVA software (BD Biosciences). Assuming normality, HLA-A2 expression was given by a one-tailed two sampled T-test comparing MFIHLA-A2 and MFIIsotype control, where MFI is the Mean Fluorescence 9 Intensity. For p-values<0.05 (significance level) cells were defined HLA-A2+. The fold of expression was defined as MFIHLA-A2/MFIIsotype control.

Substance: ALLEIASCL (listed as Homo sapiens) [IDO5]
- binding affinity to HLA-A2 compared with the high affinity positive control epitope HIV-1 pol476-484 [1]: bound HLA-A2 even better than the high-affinity control epitope
- ELISPOT responses in PBL of cancer patients [2]: ELISPOT responses were detected
- spontaneous ELISPOT responses in healthy controls [3]: No spontaneous responses could be detected
- average frequency of IDO reactive cells of total CD8+ T cells ([4]; 7 HLA-A2 positive healthy donors): 0.001%
- average frequency of IDO reactive cells of total CD8+ T cells ([4]; 11 HLA-A2 positive cancer patients): 0.03%
- detection of IDO-reactive T cells in healthy donors ([4]; tetramer staining, healthy donors): No IDO-reactive T cells could be detected
- analyzed patients with detectable IDO5-specific T cells among TIL [5]: 4 of the 5

Substance: FLVSLLVEI (listed as Homo sapiens) [IDO2]
- ELISPOT responses in PBL of cancer patients [2]: ELISPOT responses were detected
- spontaneous ELISPOT responses in healthy controls [3]: No spontaneous responses could be detected

Substance: IFN-γ: cytokine used to treat cancer cells, 100 U/ml for 2 days
- IDO staining index ([6]; CAMA-1+IFN-γ (untreated CAMA-1 1.3), IDO positive if index>1): 1.8
- MFIIDO/MFIIsotype control ([6]; CAMA-1+IFN-γ treatment (untreated 2.3)): 3.5
- expression of IDO in CAMA-1 and MDA-MB-231 after treatment ([6]; both cell lines): increased the expression of IDO
- HLA-A2 expression, fold over isotype control [7]: 141.2

Substance: VLSKGDGL (VLSKGDAGL; listed as Homo sapiens) [IDO6]
- ELISPOT responses in PBL of cancer patients [2]: ELISPOT responses were detected
- spontaneous ELISPOT responses in healthy controls [3]: No spontaneous responses could be detected
